Experimental data from PMC12649483, “Novel Chalcone Derivatives as Anti-Leishmania infantum Agents with Potential Synergistic Activity and In Silico Insights” (Antibiotics, 2025).
Entries after “also recorded” stand apart in the source; their conditions may differ.

Legend:
[1] = tested on: L. infantum promastigotes; experiment: In vitro leishmanicidal activity (MTT) in promastigote forms; type: cell-based, Leishmania infantum; conditions: for IC50: 72 h treatment, MTT
Procedure: (§1) Promastigote forms of L. infantum [IOC/L0579 (MHOM/BR/1974/PP75)] were cultured in Schneider’s medium (pH 7.0), supplemented with 20% fetal bovine serum (FBS), 1% human male urine, and 1% antibiotic solution (penicillin 200 U/mL and streptomycin 0.1 mg/mL), and maintained at 26 ± 1 °C (B.O.D SL 200—SOLAB, Piracicaba, SP, BR). The generation of extracellular axenic amastigote forms of L. infantum was based on protocols previously described by Debrabant et al. (2004), with modifications that included the use of Schneider’s medium adjusted to pH 5.5 and incubation at 37 °C (CO2 Series 3517-2, Cornelius, OR, USA).
The antileishmanial activity of compounds against metacyclic promastigote populations was assessed using the MTT (ACROS, Livingston, NJ, USA) assay for cell viability analysis. During testing, L. infantum (IOC/L0579) cultures were maintained in vitro in supplemented Schneider’s (Sigma-Aldrich, St. Louis, MO, USA) medium (pH 7.0) at 26 ± 1 °C in a biological oxygen demand (BOD) incubator.
(§2) In 96-well plates, initial screening was performed with serial dilutions (400 to 3.12 μM) of compounds 3a–c and 4a–c in duplicate. […] AmB was used as a positive control due to its established leishmanicidal activity, tested at concentrations ranging from 10 to 0.078 μM. Following 72 h-treatment of promastigotes and 24 h-treatment of amastigotes (accounting for the stationary phase culture characteristics), MTT was added for 4 h, followed by overnight incubation with sodium dodecyl sulfate (SDS) for spectrophotometric (Biotek model ELx800, Winooski, VT, USA) reading at 540 nm.

[2] = tested on: L. infantum axenic amastigotes; experiment: In vitro leishmanicidal activity (MTT) in axenic amastigote forms; type: cell-based, Leishmania infantum; conditions: for IC50: axenic amastigotes, 24 h treatment, MTT
Procedure: as §1, §2

human erythrocytes = experiment: Hemolytic activity in human erythrocytes; type: cell-based; conditions: for hemolytic activity (in words): tested concentrations 100–0.78 µM
Procedure: The hemolytic activity of the compounds 4a–b was evaluated using an adaptation of the method described by Van de Ven (2012). Blood samples were adjusted to a 5% erythrocyte concentration, taking into account the hematocrit differences between males (40–50% ≈ 45%) and females (35–45% ≈ 40%). Compounds were added to 96-well plates at serial dilutions (100 to 0.78 µM), while AmB was tested at concentrations ranging from 400 to 3.12 µM as a reference. After 1 h of incubation at 37 °C in a 5% CO2 incubator, 100 µL of phosphate-buffered saline (PBS) was added to each well. Plates were centrifuged (112× g, 10 min, 25 °C), and supernatants were transferred to a mirrored 96-well plate. Hemoglobin release, reflecting erythrocyte lysis, was quantified by measuring absorbance at 540 nm. The assay was performed in three independent experiments, with results expressed as mean hemolytic concentration (HC50). Ultrapure water (Direct-Q UV, Guyancourt, France) served as the positive control (100% hemolysis).

[3] = Cytotoxicity (MTT) in peripheral blood mononuclear cells; type: cell-based, human; conditions: human, peripheral blood mononuclear cells (PBMCs), 24 h; for CC50 at 24 h: PBMCs, MTT; for viability at 24 h, 250 µM: at 250 μM; for viability at 24 h, 500 µM: at 500 μM
Procedure: (§3) For the PBMCs assay, blood samples from three healthy volunteers were processed using Ficoll density gradient centrifugation (980× g) for 20 min at 25 °C. The PBMCs layer was collected, washed with sterile 1× PBS (300× g, 10 min, 4 °C), and resuspended in RPMI medium (Sigma-Aldrich) supplemented with 10% FBS and 1% antibiotic. Adjusted PBMCs were plated in 96-well plates and incubated with serial dilutions of the compounds (1000 to 7.8 µM) and AmB (100 to 0.78 µM) for 24 h (37 °C, 5% CO2). MTT was then added for 4 h, followed by centrifugation (300× g, 10 min) at 4 °C, supernatant removal, and DMSO addition for spectrophotometric reading at 540 nm.

human PBMCs = experiment: as above; type: cell-based
Procedure: as §3

[4] = tested on: L. infantum axenic amastigotes; experiment: Synergistic activity of 4b with AmB (Chou-Talalay) against axenic amastigotes; type: cell-based, Leishmania infantum; conditions: of each drug within the 1:5 AmB:4b combination
Procedure: The nature of the drug interaction (synergistic, additive, or antagonistic) was evaluated using the Chou–Talalay method implemented in CompuSyn software (ComboSyn Incorporated, version 1.0.1, 2006–2023). This approach calculates the Combination Index (CI) based on dose–response data fitted to the median-effect equation, with parameters including Dm (median-effect dose), m (slope of the dose–effect curve), and r (linear correlation coefficient). To characterize the interaction at different effect levels, CI values were determined for the following effective doses: ED50, ED75, and ED90, corresponding to 50%, 75%, and 90% inhibition of cell viability, respectively. Interactions were interpreted as synergistic when CI < 1, additive when CI = 1, and antagonistic when CI > 1. Additionally, the dose reduction index (DRI) was calculated to estimate the amount of dose reduction that could be achieved for each drug in combination while maintaining the same level of efficacy; […]

[5] = at the highest concentration, 72 h
[6] = at the lowest doses / lower concentrations, 72 h

For `C[C@@H]1[C@H](O)[C@@H](C)/C=C/C=C/C=C/C=C/C=C/C=C/C=C/[C@H](O[C@@H]2O[C@H](C)[C@@H](O)[C@H](N)[C@@H]2O)C[C@@H]2O[C@](O)(C[C@@H](O)C[C@@H](O)[C@H](O)CC[C@@H](O)C[C@@H](O)CC(=O)O[C@H]1C)C[C@H](O)[C@H]2C(=O)O` [AmB, Amphotericin B, reference compound], the IC50 ([1]; Leishmania infantum) was 0.87 µM, the IC50 ([2]; Leishmania infantum) was 0.89 µM and the “50% hemolytic concentration (HC50)” value (human erythrocytes; 5% erythrocytes, 1 h, 37 °C) was 193.4 µM. For the same compound, the CC50 at 24 h [3] was 29.9 µM, the viability at 24 h, 25 µM ([3]; at 25 μM, read-out: PBMC viability) was 61.9% and the viability at 24 h, 50 µM ([3]; at 50 μM, read-out: PBMC viability) was 40.8%. For the same compound, the viability at 24 h, 100 µM ([3]; at 100 μM, read-out: PBMC viability) was 30.4%, the CC50 (human PBMCs; PBMCs, 24 h, MTT) was 29.9 µM and the “dose reduction index (DRI) at IC50” value [4] was 2.87.

`Cc1ccc(C(=O)/C=C/c2ccc(OCC(=O)NC3CCCCC3)cc2)cc1` [Compound 4a, (E)-N-Cyclohexyl-2-(4-(3-oxo-3-p-tolylprop-1-enyl)phenoxy)acetamide] gave an IC50 ([1]; Leishmania infantum) of 12.9 µM, a promastigote viability [1, 5] of 20.77% and a promastigote viability [1, 6] of 100%. The viability at 12.5 µM ([2]; Leishmania infantum, at 12.5 µM, 24 h) was 80.2%, the viability at 25 µM ([2]; Leishmania infantum, at 25 µM, 24 h) was 30.8% and the viability at 50 µM ([2]; Leishmania infantum, at 50 µM, 24 h) was 23.5%. The IC50 ([2]; Leishmania infantum) was 19.7 µM, the “hemolytic activity (in words)” value (human erythrocytes) was “no hemolytic activity” and the CC50 at 24 h [3] was 157 µM. The viability at 24 h, 125 µM ([3]; at 125 μM, read-out: PBMC viability) was 61.2%, the viability at 24 h, 250 µM ([3]; read-out: PBMC viability) was 33% and the viability at 24 h, 500 µM ([3]; read-out: PBMC viability) was 33.4%.

Work on `COc1ccc(C(=O)/C=C/c2ccc(OCC(=O)NC3CCCCC3)cc2)cc1` [Compound 4b, (E)-N-Cyclohexyl-2-(4-(3-(4-methoxyphenyl)-3-oxoprop-1-enyl)phenoxy)acetamide] yielded an IC50 ([1]; Leishmania infantum) of 7.02 µM, a viability at 3.12 µM ([1]; Leishmania infantum, at 3.12 µM, 72 h) of 79.3% and a viability at 6.25 µM ([1]; Leishmania infantum, at 6.25 µM, 72 h) of 34.2%. For the same compound, the viability at 12.5 µM ([1]; Leishmania infantum, at 12.5 µM, 72 h) was 24.3%, the viability at 1.56 µM ([2]; Leishmania infantum, at 1.56 µM, 24 h) was 85.5% and the viability at 3.12 µM ([2]; Leishmania infantum, at 3.12 µM, 24 h) was 60.8%. The viability at 6.25 µM ([2]; Leishmania infantum, at 6.25 µM, 24 h) was 9.12%, the IC50 ([2]; Leishmania infantum) was 3.4 µM and the “hemolytic activity (in words)” value (human erythrocytes) was “no hemolytic activity”. For the same compound, the CC50 at 24 h [3] was 505 µM, the viability at 24 h, 250 µM ([3]; read-out: PBMC viability) was 65.1% and the viability at 24 h, 500 µM ([3]; read-out: PBMC viability) was 55.2%. For the same compound, the viability at 24 h, 1000 µM ([3]; at 1000 μM, read-out: PBMC viability) was 31.8%, the “PBMC cytotoxicity versus negative controls (in words)” value (human PBMCs; 25–100 μM) was “negligible cytotoxicity” and the “dose reduction index (DRI) at IC50” value [4] was 1.28.

In the case of `O=C(COc1ccc(/C=C/C(=O)c2ccc(Br)cc2)cc1)NC1CCCCC1` [Compound 4c, (E)-2-(4-(3-(4-Bromophenyl)-3-oxoprop-1-enyl)phenoxy)-N-cyclohexylacetamide], the IC50 ([1]; Leishmania infantum) is reported as 45.8 µM, the promastigote viability [1, 5] is reported as 21.93% and the promastigote viability [1, 6] is reported as 100%. For the same compound, the “activity against amastigotes (in words)” value ([2]; 24 h) was “no detectable activity; also recorded: no inhibitory effect”.
